Measured values from patent US12268690B2, “Treatments for mutations in acute myeloid leukemia” (OREGON HEALTH & SCIENCE UNIVERSITY, priority 2018, dated 2025).

Test system: freshly isolated mononuclear cells from AML samples
Assay: Ex vivo functional drug screen (MTS viability, AUC) on primary AML samples, compared by mutation or clinical group
Format: cell-based, human
From the text: This panel contained graded concentrations of a drugs with activity against two-thirds of the tyrosine kinome as well as other non-tyrosine kinase pathways, including MAPKs, PI3K/AKT/mTOR, AMPK, ATM, Aurora kinases, CAMKs, CDKs, GSK3a/b, IκK, PKA, PKC, PLK1, and RAF. In addition, the library contained small molecule inhibitors with activity against the BCL2 family, BRD4, Hedgehog, HSP90, NOTCH/gamma-secretase, proteasome, survivin, STAT3, and WNT/beta-catenin. Drug sensitivity patterns were analyzed with respect to clinical and genetic features of tumors. We compared the average area-under-the curve (AUC) values for each drug between the de novo and transformed samples via a series of single factor ANOVAs. […] In addition, we analyzed the concordance of drug sensitivity patterns with respect to predicted target gene, gene family, or pathway for each drug. […] To create a global view of overall sensitivity or resistance of each case, we generated a heatmap of binary sensitive/resistant calls for each sample to each drug.
Correlation of drug sensitivity with mutational events was performed by assessing the range of sensitivity of cases with mutation of an individual gene (as well as co-occurring mutational events) versus cases with wild type sequence for that same gene. […] The difference in average drug sensitivity of mutant versus wild type cases for each drug/mutation pair was plotted on the horizontal axis of a volcano plot with a test for statistical significance of the comparison plotted on the vertical axis (corrected for multiple comparison false discovery rate^42; FIG. 4). […] To aid in discovery of potential mutational biomarkers of drug sensitivity, we plotted volcano plots that were specific to each individual drug (versus all possible mutational events) and for each individual gene (versus all possible drugs tested).
Ex vivo drug screens were performed on freshly isolated mononuclear cells from AML samples as previously described^41.
Ex vivo functional drug screens were performed on freshly isolated mononuclear cells from AML samples. […] Drug plates were created using inhibitors purchased from LC Laboratories and Selleck Chemicals and master stocks were reconstituted in DMSO and stored at −80° C. […] DMSO control wells and positive control wells containing a drug combination of Flavopiridol, Staurosporine and Velcade were placed on each plate, with the final concentration of DMSO ≤0.1% in all wells. Daughter plates were created using a V&P Scientific 384-well pin tool head operated by the Caliper Sciclone ALH 3000 and equipped with 0.457 mm diameter, 30 nanoliter, slotted stainless steel pins (cat num: FP1NS30). Daughter and destination plates were sealed with pealable thermal seals using a PlateLoc thermal sealer. Destination plates were stored at −20° C. for no more than three months and thawed immediately before use. Primary mononuclear cells were plated across single-agent inhibitor panels within 24 h of collection. […] After 3 d of culture at 37° C. in 5% CO2, MTS reagent (CellTiter96 AQueous One; Promega) was added, optical density was measured at 490 nm, and raw absorbance values were adjusted to a reference blank value and then used to determine cell viability (normalized to untreated control wells).
A given sample was run on one or more panels and within each panel, the majority of drugs were run without within-panel replicates. […] An additional set of ‘curve-free’ AUCs was computed for sample-inhibitor pairs run on multiple panels.
Based on the methodology used in our prior drug combination study^36, a probit regression was fit to all possible run groups using the model: (normalized_viability/100)˜1+log 10(concentration) Where for all groups there were N=7 dose-response measurements. The summary measures of curve fit were inspected and cutoffs were devised removing all runs with an AIC >12 and deviance >2.

NC(=O)c1cnc(N[C@@H]2CCCC[C@@H]2N)nc1Nc1cccc(-n2nccn2)c1 [PRT062607]
drug sensitivity mutant vs wild type (average difference in AUC; top left quadrant of volcano plot) (NPM1:DNMT3A): PRT062607

CCOc1cc2ncc(C#N)c(Nc3ccc(F)c(Cl)c3)c2cc1NC(=O)/C=C/CN(C)C [Pelitinib]
drug sensitivity mutant vs wild type (average difference in AUC; top left quadrant of volcano plot) (FLT3_ITD): pelitinib
drug sensitivity mutant vs wild type (average difference in AUC; top left quadrant of volcano plot) (NPM1): Pelitinib
drug sensitivity mutant vs wild type (average difference in AUC; top left quadrant of volcano plot) (NPM1:FLT3_ITD): pelitinib

c1cn2cc(-c3ccc4cn[nH]c4c3)nc(Nc3ccc(N4CCOCC4)cc3)c2n1 [Entospletinib, 6-(1H-indazol-6-yl)-N-(4-morpholin-4-ylphenyl)imidazo[1,2-a]pyrazin-8-amine]
drug sensitivity mutant vs wild type (average difference in AUC; top left quadrant of volcano plot) (DNMT3A): Entospletinib
drug sensitivity mutant vs wild type (average difference in AUC; top left quadrant of volcano plot) (DNMT3A:IDH2): Entospletinib (GS-9973)
drug sensitivity mutant vs wild type (average difference in AUC; top left quadrant of volcano plot) (IDH2): Entospletinib
drug sensitivity mutant vs wild type (average difference in AUC; top left quadrant of volcano plot) (NPM1): Entospletinib
drug sensitivity mutant vs wild type (average difference in AUC; top left quadrant of volcano plot) (NPM1:DNMT3A): Entospletinib
drug sensitivity mutant vs wild type (average difference in AUC; top left quadrant of volcano plot) (NPM1:IDH1): entospletinib
drug sensitivity mutant vs wild type (average difference in AUC; top left quadrant of volcano plot) (NPM1:IDH2): entospetinib
drug sensitivity mutant vs wild type (average difference in AUC; top left quadrant of volcano plot) (NPM1:SRSF2): entospetinib
drug sensitivity mutant vs wild type (average difference in AUC; top left quadrant of volcano plot) (NPM1:TET2: DNMT3A): Entospetinib
pattern of drug sensitivity (cases with FLT3-ITD and NPM1): similarly significant pattern of sensitivity

COc1cc2nccc(Oc3ccc(NC(=O)NC4CC4)c(Cl)c3)c2cc1C(N)=O [Lenvatinib]
drug sensitivity mutant vs wild type (average difference in AUC; top left quadrant of volcano plot) (DNMT3A): Lenvatinib
drug sensitivity mutant vs wild type (average difference in AUC; top left quadrant of volcano plot) (FLT3_ITD): lanvatinib
drug sensitivity mutant vs wild type (average difference in AUC; top left quadrant of volcano plot) (IDH2): Lenvatinib
drug sensitivity mutant vs wild type (average difference in AUC; top left quadrant of volcano plot) (NPM1): Levatinib
drug sensitivity mutant vs wild type (average difference in AUC; top left quadrant of volcano plot) (NPM1:DNMT3A): Lenvatinib
drug sensitivity mutant vs wild type (average difference in AUC; top left quadrant of volcano plot) (NPM1:DNMT3A:FLT3): lenvantinib
drug sensitivity mutant vs wild type (average difference in AUC; top left quadrant of volcano plot) (NPM1:FLT3_ITD): lenvatinib
drug sensitivity mutant vs wild type (average difference in AUC; top left quadrant of volcano plot) (NPM1:IDH2): lenvatinib
drug sensitivity mutant vs wild type (average difference in AUC; top left quadrant of volcano plot) (NPM1:SRSF2): lenvatinib
drug sensitivity mutant vs wild type (average difference in AUC; top left quadrant of volcano plot) (NPM1:TET2: DNMT3A): Lenvatinib

Cc1ccc2nc(NCCN)c3ncc(C)n3c2c1 [BMS-345541, N′-(1,8-dimethyl-4-imidazo[1,2-a]quinoxalinyl)ethane-1,2-diamine]
drug sensitivity mutant vs wild type (average difference in AUC; top left quadrant of volcano plot) (PDS5B): BMS-345541

COc1cc2c(Oc3ccc4[nH]c(C)cc4c3F)ncnc2cc1OCCCN1CCCC1 [Cediranib]
drug sensitivity mutant vs wild type (average difference in AUC; top left quadrant of volcano plot) (FLT3_ITD:RUNX1): cediranib
drug sensitivity mutant vs wild type (average difference in AUC; top left quadrant of volcano plot) (RUNX1): Cediranib
drug sensitivity mutant vs wild type (average difference in AUC; top left quadrant of volcano plot) (U2AF1): Cediranib (AZD2171)
correlation of mutation with drug sensitivity (mutation of RUNX1): correlated with sensitivity

CCS(=O)(=O)O.COC(=O)c1ccc2c(c1)NC(=O)/C2=C(\Nc1ccc(N(C)C(=O)CN2CCN(C)CC2)cc1)c1ccccc1 [Vargetef]
drug sensitivity mutant vs wild type (average difference in AUC; top left quadrant of volcano plot) (FLT3_ITD): vargetef
drug sensitivity mutant vs wild type (average difference in AUC; top left quadrant of volcano plot) (FLT3_ITD:DNMT3A): vargetef
drug sensitivity mutant vs wild type (average difference in AUC; top left quadrant of volcano plot) (FLT3_ITD:FLT3): vargetef
drug sensitivity mutant vs wild type (average difference in AUC; top left quadrant of volcano plot) (FLT3_ITD:TET2): vargetef
drug sensitivity mutant vs wild type (average difference in AUC; top left quadrant of volcano plot) (FLT3_ITD:TET2:DNMT3A): Vargetef
drug sensitivity mutant vs wild type (average difference in AUC; top left quadrant of volcano plot) (FLT3_ITD_IHD2): vargetef
drug sensitivity mutant vs wild type (average difference in AUC; top left quadrant of volcano plot) (IDH2): Vargetef
drug sensitivity mutant vs wild type (average difference in AUC; top left quadrant of volcano plot) (NPM1): Vagetef
drug sensitivity mutant vs wild type (average difference in AUC; top left quadrant of volcano plot) (NPM1:FLT3_ITD): vargetef
drug sensitivity mutant vs wild type (average difference in AUC; top left quadrant of volcano plot) (NPM1:FLT3_ITD:DNMT3A): vargetef
drug sensitivity mutant vs wild type (average difference in AUC; top left quadrant of volcano plot) (NPM1:FLT3_ITD:TET2): vargetef
drug sensitivity mutant vs wild type (average difference in AUC; top left quadrant of volcano plot) (NPM1:IDH2): Vargetef
drug sensitivity mutant vs wild type (average difference in AUC; top left quadrant of volcano plot) (NPM1:SRSF2): Vargetef
drug sensitivity mutant vs wild type (average difference in AUC; top left quadrant of volcano plot) (NPM1:TET2: DNMT3A): Vargetef

CN(C)CC[C@H](CSc1ccccc1)Nc1ccc(S(=O)(=O)NC(=O)c2ccc(N3CCN(Cc4ccccc4-c4ccc(Cl)cc4)CC3)cc2)cc1[N+](=O)[O-] [ABT-737]
drug sensitivity mutant vs wild type (average difference in AUC; top left quadrant of volcano plot) (PML.RARA): ABT-737

Cn1cc(-c2ccc3nnc(Sc4ccc5ncccc5c4)n3n2)cn1 [SGX-523, 6-((6-(1-methyl-1H-pyrazol-4-yl)-[1,2,4]triazolo[4,3-b]pyridazin-3-yl)thio)quinoline]
drug sensitivity mutant vs wild type (average difference in AUC; top left quadrant of volcano plot) (NPM1:CEBPA): SGX-523
drug sensitivity mutant vs wild type (average difference in AUC; top left quadrant of volcano plot) (NPM1:IDH2): SGX-523
drug sensitivity mutant vs wild type (average difference in AUC; top left quadrant of volcano plot) (NPM1:SRSF2): SGX-523
drug sensitivity mutant vs wild type (average difference in AUC; top left quadrant of volcano plot) (NPM1:SRSF2:IDH2): SGX-523

Cc1cc(Nc2cc(N3CCN(C)CC3)nc(Sc3ccc(NC(=O)C4CC4)cc3)n2)[nH]n1 [Tozasertib]
drug sensitivity mutant vs wild type (average difference in AUC; top left quadrant of volcano plot) (FLT3_ITD): Tozasertib
drug sensitivity mutant vs wild type (average difference in AUC; top left quadrant of volcano plot) (FLT3_ITD:DNMT3A): tozasertib
drug sensitivity mutant vs wild type (average difference in AUC; top left quadrant of volcano plot) (FLT3_ITD_IHD2): tozasertib
drug sensitivity mutant vs wild type (average difference in AUC; top left quadrant of volcano plot) (IDH2): Tozasertib
drug sensitivity mutant vs wild type (average difference in AUC; top left quadrant of volcano plot) (NPM1:FLT3_ITD:DNMT3A): tozasertib
drug sensitivity mutant vs wild type (average difference in AUC; top left quadrant of volcano plot) (NPM1:SRSF2): Tozasertib

N#CCNC(=O)c1ccc(-c2ccnc(Nc3ccc(N4CCOCC4)cc3)n2)cc1 [cyt387]
sensitivity to JAK kinase inhibitors, mutant versus wild type (average AUC difference, one-way ANOVA) (BCOR mutation alone or co-mutation of BCOR with DNMT3A or SRSF2): no difference in sensitivity
drug sensitivity mutant vs wild type (average difference in AUC; top left quadrant of volcano plot) (FLT3_ITD): cyt387
drug sensitivity mutant vs wild type (average difference in AUC; top left quadrant of volcano plot) (NPM1:FLT3_ITD): cyt387
sensitivity to JAK kinase inhibitors, mutant versus wild type (average AUC difference, one-way ANOVA) (co-mutation of BCOR with RUNX1): increased sensitivity

COc1cc2ncnc(Nc3ccc(F)c(Cl)c3)c2cc1OCCCN1CCOCC1 [Gefitinib]
drug sensitivity mutant vs wild type (average difference in AUC; top left quadrant of volcano plot) (FLT3_ITD): gefitinib
drug sensitivity mutant vs wild type (average difference in AUC; top left quadrant of volcano plot) (FLT3_ITD:SRSF2): Gefitinib
drug sensitivity mutant vs wild type (average difference in AUC; top left quadrant of volcano plot) (FLT3_ITD_IHD2): gefitinib
drug sensitivity mutant vs wild type (average difference in AUC; top left quadrant of volcano plot) (NPM1): Gefitinib
drug sensitivity mutant vs wild type (average difference in AUC; top left quadrant of volcano plot) (NPM1:DNMT3A): Gefitinib
drug sensitivity mutant vs wild type (average difference in AUC; top left quadrant of volcano plot) (NPM1:FLT3_ITD): gefitinib
drug sensitivity mutant vs wild type (average difference in AUC; top left quadrant of volcano plot) (NPM1:FLT3_ITD:DNMT3A): gefitinib
drug sensitivity mutant vs wild type (average difference in AUC; top left quadrant of volcano plot) (NPM1:IDH2): gefitinib
drug sensitivity mutant vs wild type (average difference in AUC; top left quadrant of volcano plot) (NPM1:SRSF2): gefitinib

CNC(=O)c1cc(Oc2ccc(NC(=O)Nc3ccc(Cl)c(C(F)(F)F)c3)cc2)ccn1 [Sorafenib]
drug sensitivity mutant vs wild type (average difference in AUC; top left quadrant of volcano plot) (DNMT3A): Sorafenib
drug sensitivity mutant vs wild type (average difference in AUC; top left quadrant of volcano plot) (NPM1): Sorafenib
drug sensitivity mutant vs wild type (average difference in AUC; top left quadrant of volcano plot) (NPM1:DNMT3A): Sorafenib
drug sensitivity mutant vs wild type (average difference in AUC; top left quadrant of volcano plot) (NPM1:IDH2): sorafenib
drug sensitivity mutant vs wild type (average difference in AUC; top left quadrant of volcano plot) (NPM1:SRSF2): sorafenib
drug sensitivity mutant vs wild type (average difference in AUC; top left quadrant of volcano plot) (NPM1:TET2): Sorafenib

CN1CC[C@H](c2c(O)cc(O)c3c(=O)cc(-c4ccccc4Cl)oc23)[C@H](O)C1 [Flavopiridol]
drug sensitivity mutant vs wild type (average difference in AUC; top left quadrant of volcano plot) (NRAS): (GSK1120212), or Flavopiridol
